From patent US20050209157A1, “Short bioactive peptides and methods for their use” (priority 2001, published 2005)
≈ marks a conversion by molar mass, not a printed value. Read-outs that look alike come from different tables or passages of the source. Non-standard residues stand in square brackets, D forms with d. Residues, ends and D or L forms follow the SMILES beside them. No end group written: not given here.

Legend:
[1] = system: Pseudomonas aeruginosa ATCC 9027; assay: Antimicrobial assay I, MIC by OD measurement; type: cell-based; details: 37° C. for 24 hours, absorbance 620 nm
[2] = system: Staphylococcus aureus ATCC 6538; assay: Antimicrobial assay I, MIC by OD measurement; type: cell-based; details: 37° C. for 24 hours, absorbance 620 nm
[3] = system: yeast (Saccharomyces cerevisiae); assay: Antimicrobial assay I, yeast assay in RPMI 1640; type: cell-based; details: RPMI 1640 media
S. aureus (MRSA) = type: cell-based, Staphylococcus aureus; details: mean of three; 16 to 20 hours at 35° C.
S. epidermidis C621 = type: cell-based, Staphylococcus epidermidis; details: mean of three; 16 to 20 hours at 35° C.
S. pyogenes M76 = assay: Antimicrobial assays II, NCCLS broth microdilution MIC; type: cell-based, Streptococcus pyogenes; details: mean of three; 16 to 20 hours at 35° C.
S. pyogenes ATCC19615 = assay: as above; type: cell-based, Streptococcus pyogenes; details: mean of three, in µg/mL
S. pneumoniae C718 = assay: as above; type: cell-based, Streptococcus pneumoniae; details: mean of three
S. pneumoniae C719 = assay: as above; type: cell-based, Streptococcus pneumoniae; details: mean of three, in µg/mL
P. acne ATCC 6919 = assay: as above; type: cell-based, Propionibacterium acnes; details: mean of three, in µg/mL
BMKC = assay: Anti-cancer assay, MTT, LD50; type: cell-based; details: BMKC cloned melanoma line, 24 hours with peptide
Text: (§1) Numbers are LD50 values (μg/mL).

H1299 = assay: Anti-cancer assay, MTT, LD50; type: cell-based; details: 24 hours with peptide, lung large cell carcinoma
Text: as §1

HeLaS3 = assay: Anti-cancer assay, MTT, LD50; type: cell-based; details: 24 hours with peptide, cervical carcinoma
Text: as §1

MCF7 = assay: Anti-cancer assay, MTT, LD50; type: cell-based; details: MCF7 breast adenocarcinoma line, MTT, 24 hours with peptide
Text: as §1

PC3 = assay: Anti-cancer assay, MTT, LD50; type: cell-based; details: 24 hours with peptide, prostate adenocarcinoma
Text: as §1

SW480 = assay: Anti-cancer assay, MTT, LD50; type: cell-based; details: SW480 colon adenocarcinoma line, 24 hours with peptide
Text: as §1

in vitro [4] = type: cell-based, human; details: human, human red blood cells, pH 7, hemolytic assay, concentration at 50% hemolysis, 1 hour at 37° C.; read-out: LD50
P. aeruginosa H374 = type: cell-based, Pseudomonas aeruginosa; set-up: key to FIC Index: FIC = 0.25 + MIC antibiotic in combination / MIC alone; ≤0.5 = synergy; details: for MIC Cm-comb.: MIC of chloramphenicol with peptide at ¼ MIC; for MIC Nal-comb.: MIC of nalidixic acid with peptide at ¼ MIC; for FIC Index: 0.5 or less = synergy
Method in brief: (§2)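 Efflux-mutant strains were tested with two-fold serial dilutions of chloramphenicol or nalidixic acid, alone and with peptide held at ¼ of its own MIC.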

P. aeruginosa H774 = type: cell-based, Pseudomonas aeruginosa; set-up: key to FIC Index: FIC = 0.25 + MIC antibiotic in combination / MIC alone; ≤0.5 = synergy; details: P. aeruginosa H744; nalidixic acid + peptide at ¼ MIC; 0.5 or less = synergy
Method in brief: as §2

P. aeruginosa = type: cell-based, Pseudomonas aeruginosa; set-up: key to FIC Index: FIC = 0.25 + MIC antibiotic in combination / MIC alone; ≤0.5 = synergy; details: P. aeruginosa H744; MIC of nalidixic acid with peptide at ¼ MIC
Method in brief: as §2

WI38 = details: MTT, 24 hours with peptide; normal fibroblast line
in vitro [5] = details: human, WI38 normal lung fibroblast cells, LD50 WI38, WI38 normal lung fibroblast line, MTT, 24 hours with peptide
[6] = chloramphenicol + peptide at ¼ MIC
[7] = nalidixic acid + peptide at ¼ MIC, FIC=0.25+MIC comb/MIC alone

Compound | paerug9027 (MIC) [1] | staph6538 (MIC) [2] | yeast (MIC or MFC) [3] | S. aureus (MRSA) MIC (S. aureus (MRSA)) [µg/mL] | S. epidermidis C621 MIC (S. epidermidis C621) [µg/mL] | S. pyogenes M76 MIC (S. pyogenes M76) [µg/mL] | S. pyogenes MIC (S. pyogenes ATCC19615) | S. pneumoniae MIC (S. pneumoniae C718) [µg/mL] | S. pneumoniae MIC (S. pneumoniae C719) | P. acne MIC (P. acne ATCC 6919) | LD50 BMKC (BMKC) [µg/mL] | H1299 LD50 (H1299) [µg/mL] | LD50 MCF7 (MCF7) [µg/mL] | PC3 LD50 (PC3) [µg/mL] | LD50 SW480 (SW480) [µg/mL] | MIC Cm-comb. (P. aeruginosa H374) [µg/mL] | MIC Nal-comb. (P. aeruginosa H374) [µg/mL] | FIC Index (P. aeruginosa H374; [6]) | FIC Index (P. aeruginosa H374; [7]) | FIC Index (P. aeruginosa H774) | also measured
FAKFLAKFLKKAL-NH2 [P111, FAKFLAKFLKKAL-NH2] | 100 µg/mL | 5 µg/mL | 200 µg/mL | 8 | 4 | 4 | 2 | 16 | 4 | 4 | 26 | 8 | 35 | 11 | 27 | 16 | 2500 | 1.25 | 0.75 | 1.25 | HeLaS3 LD50 (HeLaS3): 7 µg/mL; HC50 at 1 h (in vitro [4]): 60 µg/mL; MIC Nal-comb. (P. aeruginosa): 624 µg/mL; WI38 LD50 (WI38): 24 µg/mL; CC50 at 24 h (in vitro [5]): 24 µg/mL
CC(C)C[C@H](NC(=O)[C@H](C)NC(=O)[C@H](CCCCN)NC(=O)[C@H](CCCCN)NC(=O)[C@H](CC(C)C)NC(=O)[C@H](C)NC(=O)[C@H](CCCCN)NC(=O)[C@H](CCCCN)NC(=O)[C@H](CC(C)C)NC(=O)[C@@H](CCCCN)NC(=O)[C@@H](CCCCN)NC(=O)[C@H](CC(C)C)NC(=O)[C@H](C)NC(=O)[C@H](CCCCN)NC(=O)[C@H](CCCCN)NC(=O)[C@H](CC(C)C)NC(=O)[C@H](C)NC(=O)[C@H](CCCCN)NC(=O)[C@H](CC(C)C)NC(=O)[C@H](C)NC(=O)[C@H](CC(C)C)NC(=O)[C@H](C)NC(=O)[C@@H](N)Cc1ccccc1)C(=O)O [P37, FALALKALKKAL-(D)-K-(D)-KLKKALKKAL-COOH] (H-FALALKALKKAL[dK][dK]LKKALKKAL-OH; N-terminus assumed) | 100 µg/mL | 5 µg/mL | 50 µg/mL | 8 | 4 | 8 | 8 | 64 | 16 | 4 | 150 | 150 | 14 | 64 | 57 | 4 | 2500 | 0.5 | 0.75 | 1.25 | HC50 at 1 h (in vitro [4]): 30 µg/mL; MIC Nal-comb. (P. aeruginosa): 624 µg/mL; WI38 LD50 (WI38): 80 µg/mL; CC50 at 24 h (in vitro [5]): 80 µg/mL (≈ 31.5 µM)
KWKLFKKKTKLFKKFAKKLAKKL-NH2 [P73] | 15 µg/mL | 50 µg/mL | 100 µg/mL | 16 | 4 | 16 | 16 | > 128 | 64 | 4 | 360 | 115 | 150 | 97 | 70 | 8 | 2500 | 0.75 | 0.75 | 1.25 | HeLaS3 LD50 (HeLaS3): 270 µg/mL; HC50 at 1 h (in vitro [4]): 90 µg/mL; MIC Nal-comb. (P. aeruginosa): 624 µg/mL; WI38 LD50 (WI38): 160 µg/mL; CC50 at 24 h (in vitro [5]): 160 µg/mL
FAKKLAKKLL-NH2 [P59] | > (> indicates greater than 200 μg/mL) | > (> indicates greater than 200 μg/mL) | > (> indicates greater than 200 μg/mL) | 8 | 8 | 2 | 2 | 16 | 4 | 2 | 155 | 180 | 31 | 81 | 42 | 8 | 2500 | 0.75 | 0.75 | 1.25 | HC50 at 1 h (in vitro [4]): 1000 µg/mL; MIC Nal-comb. (P. aeruginosa): 624 µg/mL; WI38 LD50 (WI38): 77 µg/mL; CC50 at 24 h (in vitro [5]): 77 µg/mL
VAKKLAKLAKKLAKLAL-NH2 [P50] | 15 µg/mL | 5 µg/mL | 50 µg/mL | 4 | 4 | 8 | 4 | 32 | 16 | 4 | 40 | 7 | 32 | 54 | 46 | 16 | 5000 | 1.25 | 1.25 | 1.25 | HeLaS3 LD50 (HeLaS3): 33 µg/mL; MIC Nal-comb. (P. aeruginosa): 624 µg/mL
